One test has as its system B. anthracis. The test can be described thus: microbe, parasite or virus in culture. The class given is cell-based. The conditions noted are these: for MIC50 / MIC90: Bacillus anthracis.
Test [1] has as its system B. anthracis Ames NR3838 spores. Further details: species or system New Zealand White rabbits. The conditions noted are these: rabbit, in vivo.
In another test the test system is B. anthracis Sterne. Format: cell-based, Bacillus anthracis.

≈ marks a conversion by molar mass, not a printed value.

The results in this text go back to publication PMC10996807 (Research Square, 2024).

For `O=C(O)c1cn(C2CC2)c2cc(N3CCNCC3)c(F)cc2c1=O` [Ciprofloxacin], in the test with B. anthracis, the “MIC Range” value lay in the range of 0.06 to 4 µg/mL, the MIC50 is 0.12 µg/mL (≈ 0.362 µM) and the MIC90 worked out at 0.5 µg/mL (≈ 1.51 µM).

As for `C[C@H]1c2cccc(O)c2C(=O)C2=C(O)[C@]3(O)C(=O)C(C(N)=O)=C(O)[C@@H](N(C)C)[C@@H]3[C@@H](O)[C@@H]21` [Doxycycline], in the test with B. anthracis, the “MIC Range” value was at most 0.008 to 0.12 µg/mL, the MIC50 stood at 0.03 µg/mL (≈ 0.0675 µM) and the MIC90 came out at 0.06 µg/mL (≈ 0.135 µM).

With `C[C@@H](O)[C@H]1C(=O)N2C(C(=O)O)=C(SCCN=CN)C[C@H]12` [Imipenem], in the test on B. anthracis, the “MIC Range” value lay in the range of 0.03 to 1 µg/mL, the MIC50 came out at 0.06 µg/mL (≈ 0.2 µM) and the MIC90 amounted to 0.12 µg/mL (≈ 0.401 µM).

On to `C[C@H]1COc2c(N3CCN(C)CC3)c(F)cc3c(=O)c(C(=O)O)cn1c23` [Levofloxacin], for which, in the test on B. anthracis, the “MIC Range” value was 0.06 to 1 µg/mL, the MIC50 turned out to be 0.12 µg/mL (≈ 0.332 µM) and the MIC90 is 0.5 µg/mL (≈ 1.38 µM). For the same molecule, the histopathology lesions entry in test [1] (12.5 mg/kg) is given as “mitigated lesions”. The “efficacious dose in rabbits” value in test [1] (iv) stood at 12.5 mg/kg.

Turning to Lys(Bodipy FL)10-teixobactin, in the test with B. anthracis Sterne, the “effect of washing on preformed supramolecular structures” value is reported as “no apparent effect” and the “formation of supramolecular structures” value was “apparent”.
